Our source for the IC50 and EC50 values is US10030016B2 (Sunesis Pharmaceuticals, Inc., priority 2009, dated 2018).

One assay deals with PDK1 (Homo sapiens (Human), UniProt O15530). Briefly: PDK1 kinase assay (coupled PDK1/AKT/FAM-crosstide assay, IMAP fluorescence polarization). The class given is biochemical. An outline of the steps:
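PDK1 activity is measured indirectly through activation of a PIFtide-fused AKT2 construct that phosphorylates FAM-crosstide (100 nM). The reaction uses 0.75 nM PDK1, 40 μM ATP, 30 min, 25° C, with IMAP polarization detection.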

Assay [1] concerns phospho-akt (Thr308) in PC-3 cells. Kind of assay: Inhibition of phospho-akt (Thr308) in PC-3 cells, MSD phospho-akt 308 ELISA kit. It counts as cell-based. The note with it: Homo sapiens, 2 hours, no serum, read-out: EC50. In a few lines:
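PC-3 cells (15,000/well, overnight in 10% FBS medium) treated 2 h with three-fold diluted compounds in serum-free medium; DMSO high and 5 μM wortmannin low controls. Lysates captured on BSA-blocked MSD plates overnight at 4 °C, then 1 h antibody detection at RT; phospho-Akt Thr308 read by MSD electrochemiluminescence.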
For orientation: In an ELISA, binding on a coated surface is turned into a signal by an enzyme label.

[2] abbreviates: inhibition of phospo-PDK1 in vitro.
Where [3] appears, read: inhibition of P308 Akt in PC-3 cells, MSD.
The mark [4] stands for this setting: inhibition of P308 Akt in PC-3 cells using MSD.

Structures are written as SMILES. Counter-ions that a name gives are not always drawn. Like-named read-outs stand apart in the source and are kept apart here.

Chain of PDK1 (O15530 51-359): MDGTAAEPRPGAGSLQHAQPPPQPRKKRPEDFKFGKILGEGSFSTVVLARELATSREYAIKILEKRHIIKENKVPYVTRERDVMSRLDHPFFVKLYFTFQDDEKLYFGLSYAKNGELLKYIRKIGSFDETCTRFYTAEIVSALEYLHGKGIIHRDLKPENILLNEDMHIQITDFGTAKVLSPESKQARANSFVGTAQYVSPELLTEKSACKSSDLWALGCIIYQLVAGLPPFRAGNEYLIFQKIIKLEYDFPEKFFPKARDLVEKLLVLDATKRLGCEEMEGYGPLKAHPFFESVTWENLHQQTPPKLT

What is called IC50 is the concentration that inhibits the measured activity by half. A low value points to greater potency. A word on the EC50: it is the concentration at which the effect is half-maximal. In the case of `Nc1ncnc2ccc(-c3ccc(CNc4ncccc4C(=O)Nc4ccc(Cl)cc4)s3)cc12` [Example 3.48, 2-({[5-(4-aminoquinazolin-6-yl)thiophen-2-yl]methyl}amino)-N-(4-chlorophenyl)pyridine-3-carboxamide (TFA salt)], the IC50 against PDK1 (setting [2]) lay within 100 to 1000 nM. In assay [1] (setting [3]), the EC50 was more than 10000 nM.
On the same counts, the results for `Nc1ncnc2ccc(-c3ccc(CNc4ncc(C(F)(F)F)cc4C(=O)NCc4ccc(F)c(F)c4)s3)cc12` [Ex. 8.12.1, 2-(((5-(4-aminoquinazolin-6-yl)thiophen-2-yl)methyl)amino)-N-(3,4-difluorobenzyl)-5-(trifluoromethyl)nicotinamide] are less than 100 nM and less than 1000 nM.
The molecule `N#Cc1cnc(NCc2ccc(-c3c[nH]c4ncnc(N)c34)cc2)c(C(=O)Nc2ccc(F)cc2)n1` [Example 320, 3-(4-(4-amino-7H-pyrrolo[2,3-d]pyrimidin-5-yl)benzylamino)-6-cyano-N-(4-fluorophenyl) pyrazine-2-carboxamide] displayed an IC50 at PDK1 (inhibition of PDK1 in vitro) of less than 100 nM. Moreover, the EC50 in assay [1] (setting [4]) was less than 1000 nM.
On PDK1 (setting [2]), `CC(C)Oc1cc(CNc2ncccc2C(=O)N[C@@H](C)c2ccccc2)cc(-c2c[nH]c3ncc(C(=O)NC4CC4)cc23)c1` [Example 4.1.13, N-cyclopropyl-3-[3-{[(3-{[(1S)-1-phenylethyl]carbamoyl}pyridin-2-yl)amino]methyl}-5-(propan-2-yloxy)phenyl]-1H-pyrrolo[2,3-b] pyridine-5-carboxamide] registered an IC50 of less than 100 nM. Also, in assay [1] (setting [3]), the EC50 is 1000 to 10000 nM.
With `Nc1ncnc2ccc(-c3ccc(CNc4ncccc4C(=O)NCc4ccc(C(F)(F)F)o4)s3)cc12` [Example 3.28, 2-({[5-(4-aminoquinazolin-6-yl)thiophen-2-yl]methyl}amino)-N-{[5-(trifluoromethyl)furan-2-yl]methyl}pyridine-3-carboxamide (bis TFA salt)], at PDK1 (setting [2]), the IC50 lay in the range of 1000 to 5000 nM. Further, the EC50 in assay [1] (PC-3, 2 h, inhibition of P308 Akt in PC-3 cells, MSD) is more than 10000 nM.
On to `Nc1ncnc2ccc(-c3ccc(CNc4ncccc4C(=O)NCc4cc(F)c(F)c(F)c4)s3)cc12` [Example 3.23, 2-({[5-(4-aminoquinazolin-6-yl)thiophen-2-yl]methyl}amino)-N-(3,4,5-trifluorobenzyl)pyridine-3-carboxamide (TFA salt)], for which the IC50 against PDK1 (setting [2]) is less than 100 nM. Also, the EC50 in assay [1] (setting [3]) is less than 1000 nM.
The molecule `Nc1ncnc2ccc(-c3ccc(CNc4ncccc4C(=O)NCc4ccc(Cl)c(Cl)c4)s3)cc12` [Example 3.29, 2-({[5-(4-aminoquinazolin-6-yl)thiophen-2-yl]methyl}amino)-N-(3,4-dichlorobenzyl) pyridine-3-carboxamide (TFA salt)] came in with an IC50 against PDK1 (setting [2]) of 100 to 1000 nM. For the same molecule, in assay [1] (setting [3]), the EC50 was in the range of 1000 to 10000 nM.
The molecule `O=C(NCc1ccc(F)c(F)c1)c1cccnc1NCc1cccc(-c2c[nH]c3ncccc23)c1` [Example 1.5, 2-(3-(1H-pyrrolo[2,3-b]pyridin-3-yl)benzylamino)-N-(3,4-difluorobenzyl)nicotinamide] gave an IC50 on PDK1 (setting [2]) of less than 100 nM. For the same molecule, the EC50 in assay [1] (setting [3]) lay within 1000 to 10000 nM.
Turning to `C[C@H](NC(=O)c1cc(C#N)cnc1NCc1ccc(-c2cnc(N)c(C(=O)NCCN3CCOCC3)n2)cc1)c1ccc(F)cc1` [Example 214, (S)-3-amino-6-(4-((5-cyano-3-(1-(4-fluorophenyl)ethylcarbamoyl)pyridin-2-ylamino)methyl)phenyl)-N-(2-morpholinoethyl) pyrazine-2-carboxamide], at PDK1 (inhibition of PDK1 in vitro), the IC50 was less than 100 nM. Moreover, the EC50 in assay [1] (setting [4]) is less than 1000 nM.
`CC(C)Oc1cc(CNc2ncccc2C(=O)Nc2ccc(F)c(F)c2)cc(-c2c[nH]c3ncc(C(=O)NC4CC4)cc23)c1` [Example 4.1.1, N-cyclopropyl-3-(3-((3-(3,4-difluorophenylcarbamoyl)pyridin-2-ylamino)methyl)-5-isopropoxyphenyl)-1H-pyrrolo[2,3-b]pyridine-5-carboxamide] had an IC50 on PDK1 (setting [2]) of 100 to 1000 nM. Further, in assay [1] (setting [3]), the half-maximal effective concentration (EC50) was more than 10000 nM.
